Test results reported in US8883798B2, “Pyrimidine compounds inhibiting the formation of nitric oxide and prostaglandin E2, method of production thereof and use thereof” (Ustav Organicke Chemie a Biochemie Akademie Ved CR, V.V.I., priority 2011, dated 2014).

Legend:
[1] = test system: production of prostaglandin E2 (PGE2); assay: Production of prostaglandin E2 (PGE2) in cultures of mouse peritoneal cells stimulated with LPS (ELISA kit); format: cell-based, mice; conditions: for Production of prostaglandins in % of the controls: Table 3A, substance 50 μmol·l^−1, 6 h; for Production of prostaglandins IC50 (μmol · 1^−1) average value and range of values: Table 3B, 6 h
Procedure: (§1) Under in vitro conditions, the effect of the pyrimidine compounds according to this invention was tested in terms of the production of nitric oxide (NO) and in terms of the production of prostaglandin E2 (PGE2) in cultures of the peritoneal cells of mice.
The influence on the production of prostaglandin E2 (PGE2) in vitro caused by the activity of the pyrimidine compounds according to the submitted invention was determined in cultures of the peritoneal cells of mice using a commercial kit (R&DSystems). The concentrations of PGE2 after lipopolysacharide (LPS) stimulation reached in the individual experiments values in a range of 22 to 91 ng·ml^−1 and for the purposes of comparison between the experiments were considered as 100%. The influence of the substances on the production of PGE2 was evaluated in percentage with respect to the control values.
(§2) Experiments were performed on mice peritoneal cells C57BL/6 (Charles River, Germany—AnLabu).
(§3) NO production was induced using IFN-g (5000 pg/mL) plus LPS (100 pg/mL); evaluated (Griess reagent) after 24 h of the cell cultivation (2×10^6/mL). PGE2 was induced using LPS (10 ng/mL); evaluated (ELISA) following 6 h cultivation of cells (3×10^6/mL). Cell longevity was evaluated using WST-1 (tetrazolium salt), following 24 h cultivation of cells (1×10^6/mL). The values mentioned in the table represent the effects of the substances tested in a concentration of 50 μmol·l^−1.

[2] = test system: production of nitric oxide (NO); assay: Production of nitric oxide (NO) in cultures of mouse peritoneal cells stimulated with IFN-γ plus LPS (Griess reagent); format: cell-based, mice; conditions: substance 50 μmol·l^−1, IFN-g plus LPS, 24 h
Procedure: as §1
NO is a product of the metabolism of L-arginine, quickly changes to […], which are then measured using the Griess reagent system. Under normal conditions, the production of NO is practically zero. It only occurs after some stimulation. In these experiments, interferon-gamma (IFN-γ) and bacterial lipopolysacharide (LPS) were used as stimulators. The values of NO induced in this way fluctuated in the individual experiments in a range from 52 to 89 μmol·l^−1; for the purposes of comparison between the experiments they were considered as 100%. The production of NO after the application of the substances was expressed in percentage with respect to the control values. (The lower the value, the higher the inhibition effect of the substances on NO production.) IC50 are the concentrations of the substances reducing the production of NO by 50% with respect to the controls.
as §2, §3

peritoneal cells of mice = assay: Cell viability of mouse peritoneal cells (WST-1 kit); format: cell-based; conditions: substance 50 μmol·l^−1, 24 h; for Cell viability in % of the controls: Table 3A; for Cell viabilities in % of the controls: Table 3B
Procedure: Cell viability was determined in the standard way using a WST-1 kit (Roche). The values of the viability of the control cells were for the purposes of comparison between experiments considered as 100%. The influence of the substances on the longevity of the cells was evaluated in percentage with respect to the control values.
as §2, §3

CCCc1c(Cl)nc(NC=O)nc1Cl [Substance 50]
Production of prostaglandins in % of the controls [1]: 14.20 ± 7.00 % of the controls
Production of nitric oxide in % of the controls ([2]; Table 3A): 3.95 ± 2.27 % of the controls
Cell viability in % of the controls (peritoneal cells of mice): 98.59 ± 6.59 % of the controls

CCCCc1c(-c2ccccc2)nc(N)nc1-c1ccco1 [Substance 94]
Production of prostaglandins IC50 (μmol · 1^−1) average value and range of values [1]: 38.84 ± 15.99; n = 4 μmol · 1^−1
Production of nitric oxide in % of the controls ([2]; Table 3B): 39.73 ± 5.57; n = 6 % of the controls
Cell viabilities in % of the controls (peritoneal cells of mice): 104.21 ± 14.38; n = 8 % of the controls

CCCCc1c(Cl)nc(N)nc1-c1ccc(F)cc1 [Substance 71]
Production of prostaglandins IC50 (μmol · 1^−1) average value and range of values [1]: 26.66 ± 11.71; n = 4 μmol · 1^−1
Production of nitric oxide in % of the controls ([2]; Table 3B): 37.07 ± 6.31; n = 4 % of the controls
Cell viabilities in % of the controls (peritoneal cells of mice): 94.59 ± 7.75; n = 4 % of the controls

CCCCc1c(-c2ccccc2)nc(N)nc1-c1ccsc1 [Substance 107]
Production of prostaglandins IC50 (μmol · 1^−1) average value and range of values [1]: 68.07 ± 2.56; n = 4 μmol · 1^−1
Production of nitric oxide in % of the controls ([2]; Table 3B): 69.69 ± 6.09; n = 4 % of the controls
Cell viabilities in % of the controls (peritoneal cells of mice): 69.08 ± 1.78; n = 4 % of the controls

CCCCc1c(-c2cccnc2)nc(N)nc1-c1cccc2ccccc12 [Substance 136]
Production of prostaglandins IC50 (μmol · 1^−1) average value and range of values [1]: 72.55 ± 19.06; n = 2 μmol · 1^−1
Production of nitric oxide in % of the controls ([2]; Table 3B): 70.28 ± 3.71; n = 4 % of the controls
Cell viabilities in % of the controls (peritoneal cells of mice): 111.00 ± 0.97; n = 4 % of the controls

CCCCc1c(-c2ccc(OC)cc2)nc(N)nc1-c1ccsc1 [Substance 109]
Production of prostaglandins IC50 (μmol · 1^−1) average value and range of values [1]: 4.9 ± 1.72; n = 4 μmol · 1^−1
Production of nitric oxide in % of the controls ([2]; Table 3B): 73.38 ± 4.58; n = 6 % of the controls
Cell viabilities in % of the controls (peritoneal cells of mice): 120.58 ± 7.53; n = 8 % of the controls

CCC(C)c1c(Cl)nc(N=CN(C)C)nc1Cl (stereo not drawn) [Substance 21]
Production of prostaglandins in % of the controls [1]: 8.14 ± 0.07 % of the controls
Production of nitric oxide in % of the controls ([2]; Table 3A): 0.69 ± 0.12 % of the controls
Cell viability in % of the controls (peritoneal cells of mice): 122.65 ± 14.39 % of the controls

CCCCc1c(Cl)nc(Sc2ccccc2)nc1Cl [Substance 148]
Production of prostaglandins IC50 (μmol · 1^−1) average value and range of values [1]: 77.50 ± 16.19; n = 4 μmol · 1^−1
Production of nitric oxide in % of the controls ([2]; Table 3B): 61.85 ± 10.25; =10 % of the controls
Cell viabilities in % of the controls (peritoneal cells of mice): 90.49 ± 4.62; n = 12 % of the controls

CC(C)c1c(Cl)nc(N=CN(C)C)nc1Cl [Substance 16]
Production of prostaglandins in % of the controls [1]: 32.10 ± 2.31 % of the controls
Production of nitric oxide in % of the controls ([2]; Table 3A): 7.32 ± 2.68 % of the controls
Cell viability in % of the controls (peritoneal cells of mice): 134.83 ± 16.51 % of the controls

C=CCc1c(Cl)nc(N)nc1Cl [Substance 32]
Production of prostaglandins in % of the controls [1]: 90.81 ± 5.95 % of the controls
Production of nitric oxide in % of the controls ([2]; Table 3A): 41.72 ± 9.27 % of the controls
Cell viability in % of the controls (peritoneal cells of mice): 93.55 ± 19.55 % of the controls

CCCCc1c(-c2ccoc2)nc(N)nc1-c1ccsc1 [Substance 113]
Production of prostaglandins IC50 (μmol · 1^−1) average value and range of values [1]: 85.05 ± 9.96; n = 4 μmol · 1^−1
Production of nitric oxide in % of the controls ([2]; Table 3B): 63.79 ± 1.64; n = 6 % of the controls
Cell viabilities in % of the controls (peritoneal cells of mice): 101.51 ± 12.74; n = 8 % of the controls

CCCCc1c(-c2ccc(OC)cc2)nc(N)nc1-c1ccoc1 [Substance 104]
Production of prostaglandins IC50 (μmol · 1^−1) average value and range of values [1]: 57.52 ± 12.44; n = 6 μmol · 1^−1
Production of nitric oxide in % of the controls ([2]; Table 3B): 71.20 ± 2.85; n = 6 % of the controls
Cell viabilities in % of the controls (peritoneal cells of mice): 137.10 ± 2.72; n = 12 % of the controls

CCCCc1c(-c2ccccn2)nc(N)nc1-c1cccc2ccccc12 [Substance 135]
Production of prostaglandins IC50 (μmol · 1^−1) average value and range of values [1]: 28.69 ± 0.00; n = 2 μmol · 1^−1
Production of nitric oxide in % of the controls ([2]; Table 3B): 18.45 ± 5.66; n = 6 % of the controls
Cell viabilities in % of the controls (peritoneal cells of mice): 64.97 ± 12.85; n = 8 % of the controls

CCCCc1c(-c2cccc3ccccc23)nc(N)nc1-c1cccc2ccccc12 [Substance 141]
Production of prostaglandins IC50 (μmol · 1^−1) average value and range of values [1]: 34.2 ± 8.01; n = 4 μmol · 1^−1
Production of nitric oxide in % of the controls ([2]; Table 3B): 57.66 ± 6.53; n = 6 % of the controls
Cell viabilities in % of the controls (peritoneal cells of mice): 107.73 ± 5.36; n = 8 % of the controls
